Source: patent publication US8647651B2, “Synergistic mixtures of C6- to C12-alkanediols and tropolone (derivatives)” (priority 2005, dated 2014)

Test system: Aspergillus niger ATCC 16404
Test: Testing for adequate preservation (European Pharmacopoeia) of O/W emulsion, Example 1
Type: cell-based
Details: for Aspergillus niger germ count: O/W emulsion pH 5.5, 0.5% product A, 0.01% product B, 0.31% product C
Protocol: Testing for adequate preservation was carried out in accordance with the European Pharmacopoeia. Testing thus comprises contamination of the formulation, if possible in its final condition, with a prescribed inoculum of suitable microorganisms, storage of the inoculated formulation at a certain temperature, removal of samples from the container at certain intervals of time and determination of the number of microorganisms in the samples removed in this way. The preserving properties are adequate if, under the conditions of the test, a clear reduction or, where appropriate, no increase in the germ count results in the inoculated formulations after the prescribed times at the prescribed temperatures. Experimental details of the test procedure are described in the European Pharmacopoeia (ISBN 3-7692-2768-9; Supplement 2001 to the 3rd Edition, page 421-422, chapter 5.1.3). The following microorganism strains were used for the tests for adequate preservation: • A: Escherichia coli ATCC 8739 • B: Pseudomonas aeruginosa ATCC 9027 • C: Staphylococcus aureus ATCC 6538 • D: Candida albicans ATCC 10231 • E: Aspergillus niger ATCC 16404 The initial germ count (CFU/g; “0 value”) was in the range of from 250,000 to 320,000 in the various test series. Formulation: For the tests for adequate preservation, a defined amount of the active compound combination according to the invention (product C) was incorporated into an O/W emulsion. For comparison purposes, the comparison products (product A and B) were incorporated into separate O/W emulsions. [table] The results of the preservative stress tests for Aspergillus niger for the active compound combinations investigated, comprising the mixture according to the invention (product C) or the comparison systems (products A and B) are compared in Table 2. The synergistic effect of the mixture according to the invention (product C) manifests itself here above all in the residual germ counts for Aspergillus niger which remain after 28 days.

In the case of `O=c1cccccc1O` [product B, 2,4,6-cycloheptatrien-1-one, 2-hydroxy], the “reduction in the number of colony-forming units (CFU) of Aspergillus niger” value (28 days, product A 0.5 wt. %) is reported as “no such significant reduction”, the “Aspergillus niger germ count” value (day 0 (initial germ count)) is reported as 280,000 CFU/ml and the “Aspergillus niger germ count” value (day 2) is reported as 72,000 CFU/ml. For the same compound, the “Aspergillus niger germ count” value (day 7) was 2,000 CFU/ml, the “Aspergillus niger germ count” value (day 14) was 4,800 CFU/ml and the “Aspergillus niger germ count” value (day 28) was 100 CFU/ml.
